Patent US7537919B2, “Cytochrome P450RAI-2 and related proteins” (Cytochroma Inc., priority 1999, dated 2009)
Where “and” joins values, the source holds several entries; their conditions need not be identical. Equal values may be shown once.

Experiments:
P450RAI-2 transcripts = assay: Induction of P450RAI-2 mRNA in cultured cell lines (Northern blot, RT-PCR); settings: for induction of P450RAI-2 expression, MCF-7 cells: 10^-6 M retinoid
[1] = Conversion of [3H]all-trans-RA in controls (media alone, pcDNA3.1 transfected COS-1 cells)
P450RAI-1 [2] = biological target: T1, P450RAI-1 (Homo sapiens, UniProt O43174); assay: Competitive inhibition of all-trans-RA metabolism in COS-1 cells transfected with pcDNA3.1-P450RAI-1; type: cell-based; parameters: expressed in transfected cells; host or cells: COS-1 (African green monkey kidney), transient transfection; settings: for IC50: 2 nM [3H]all-trans-RA, 3 hours, aqueous soluble radioactivity, read-out: Interpolated ID50, P450RAI-1; for effectiveness as competitor of P450RAI-1 mediated all-trans-RA metabolism: compared with all-trans-RA
T1 sequence (O43174 1-497): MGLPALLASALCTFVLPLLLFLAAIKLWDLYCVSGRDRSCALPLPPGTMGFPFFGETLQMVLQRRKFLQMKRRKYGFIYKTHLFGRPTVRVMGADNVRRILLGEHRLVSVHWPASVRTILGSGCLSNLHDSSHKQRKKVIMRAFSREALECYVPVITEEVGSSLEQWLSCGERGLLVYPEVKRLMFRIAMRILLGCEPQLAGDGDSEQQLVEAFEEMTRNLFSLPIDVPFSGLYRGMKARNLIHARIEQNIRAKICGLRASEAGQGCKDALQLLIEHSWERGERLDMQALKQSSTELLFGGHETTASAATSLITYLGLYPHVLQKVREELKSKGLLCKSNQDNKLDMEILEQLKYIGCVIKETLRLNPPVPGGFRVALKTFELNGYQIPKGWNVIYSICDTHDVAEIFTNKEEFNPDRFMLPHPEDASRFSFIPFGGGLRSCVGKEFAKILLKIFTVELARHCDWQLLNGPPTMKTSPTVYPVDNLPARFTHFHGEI
Procedure: (§1) Panels on the right show cells expressing P450RAI-2 with panels on the left showing cells expressing P450RAI-1.
(§2) Exponentially growing cells were plated in triplicate into 6-well plates and transfected with lug of pcDNA3.1-P450RAI-1 or pcDNA3.1-P450RAI-2 using Fugene 6 transfection reagent with 3 ul per sample as described by the manufacturer (Roche Molecular Biochemicals, IN). Cells were maintained in media supplemented with 10% FBS during transfection.
COS-1 cells were transfected with either pcDNA3.1-P450RAI-1 or pcDNA3.1-P450RAI-2 in 6-well tissue culture plates as described above. 48 hours post-transfection cells were harvested, pooled, washed with DMEM medium and replated into duplicate 48-well plates with 5×10^5 cells per well.

P450RAI-2 [3] = biological target: T2, P450RAI-2 (Homo sapiens, UniProt Q9NR63); assay: Metabolism of [3H]all-trans-RA to aqueous-soluble products in COS-1 cells transfected with pcDNA3.1-P450RAI-2; parameters: dose or concentration left out as unconfirmed; settings: radiolabelled all-trans-retinoic acid
T2 sequence (Q9NR63 1-512): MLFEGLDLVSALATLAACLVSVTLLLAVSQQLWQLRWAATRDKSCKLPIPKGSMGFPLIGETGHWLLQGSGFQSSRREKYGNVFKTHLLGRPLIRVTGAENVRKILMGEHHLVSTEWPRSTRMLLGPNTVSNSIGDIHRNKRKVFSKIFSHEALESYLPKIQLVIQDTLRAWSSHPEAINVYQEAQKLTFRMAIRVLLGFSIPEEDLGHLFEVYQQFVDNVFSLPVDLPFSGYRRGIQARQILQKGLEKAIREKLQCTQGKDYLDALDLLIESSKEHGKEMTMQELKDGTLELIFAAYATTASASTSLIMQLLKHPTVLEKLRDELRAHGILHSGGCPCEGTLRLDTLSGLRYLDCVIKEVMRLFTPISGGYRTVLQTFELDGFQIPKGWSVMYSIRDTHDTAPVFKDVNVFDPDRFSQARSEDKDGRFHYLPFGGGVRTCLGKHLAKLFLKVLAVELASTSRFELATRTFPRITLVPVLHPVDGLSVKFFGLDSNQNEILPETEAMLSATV

P450RAI-1 [4] = biological target: T1, P450RAI-1; assay: Metabolism of [3H]all-trans-RA to aqueous-soluble products in COS-1 cells transfected with pcDNA3.1-P450RAI-1; settings: 100 mM (so in the source) radiolabelled all-trans-retinoic acid
P450RAI-2 [5] = biological target: T2, P450RAI-2; assay: Competitive inhibition of all-trans-RA metabolism in COS-1 cells transfected with pcDNA3.1-P450RAI-2; type: cell-based; parameters: The full-length human P450RAI-2 cDNA was cloned into the eukaryotic expression vector pcDNA 3.1; expressed in transfected cells; host or cells: COS-1 (African green monkey kidney), transient transfection; settings: for effectiveness as competitor of P450RAI-2 mediated all-trans-RA metabolism: compared with all-trans-RA, COS-1 cells
Procedure: as §1, §2
COS-1 cells were transfected with either pcDNA3.1-P450RAI-1 or pcDNA3.1-P450RAI-2 in 6-well tissue culture plates as described above.

P450RAI-2 expression = P450RAI-2 expression in RAFT and psoriasis biopsy samples (Northern blot, RT-PCR); type: cell-based, human
Procedure: Total RNA aliquots (10 μg) were electrophoresed on a 1.0% formaldehyde-agarose gel and a northern blot performed. The gel was photographed under ultraviolet light and then blotted on Hybond ECL nitrocellulose membrane (Amersham Pharmacia Biotech, UK) and fixed to the membrane by baking at 80° C. for 2 hours under vacuum. […] Three individual cDNA fragments were labeled with α-[^32P]dATP using the Prime-A-Gene Labeling System (Promega, WI). The probes were as follows; P450RAI-1762-1217 bp of SEQ ID NO:13, full length P450RAI-2 SEQ ID NO:4 and a human glyceraldehyde-3-phosphate dehydrogenase (GAPDH) PCR fragment. The blot was hybidized with P450RAI-2, washed two times for 5 minutes in 2×SSPE, 0.1% SDS at room temperature, then washed once at 65° C. for 10 minutes in 1×SSPE, 0.1% SDS and a final wash for 15 minutes at 65° C. in 0.1×SSPE, 0.1% SDS. The blot was exposed at −70° C. for 48 hours to Kodak X-Omat AR film (Eastman Kodak Company, NY). […] The blot was stripped by washing two times for 30 minutes in boiling 0.5% SDS and exposed to film overnight to ensure proper removal of probe. The above protocol was repeated for P450RAI-1 and GAPDH. The P450RAI-1 and GAPDH blots were exposed for 96 and 4 hours respectively.
The final primer concentrations were 45 μM for the P450RAI-1 and P450RAI-2 primers and 11.25 μM for the GAPDH-specific primers. Two separate sets of reactions were performed using the primer sets, P450RAI-1/GAPDH and P450RAI-2/GAPDH. […] The P450RAI-1, P450RAI-2 and GAPDH upstream and downstream amplification primers sets were 5′[…]-3′ (SEQ ID NO: 35) and 5′-[…]-3′ (SEQ ID NO: 36), 5′-[…]-3′ (SEQ ID NO: 37) and 5′-[…]-3′ (SEQ ID NO: 38), 5′-[…]-3′ (SEQ ID NO: 39) and 5′-[…]-3′ (SEQ ID NO: 40) respectively. […] Both the Psoriasis samples show PCR products corresponding to P450RAI-2.

CC1=C(/C=C/C(C)=C/C=C/C(C)=C/C(=O)O)C(C)(C)CCC1 [All-trans-RA, all-trans retinoic acid]
time to induction of P450RAI-2 transcripts (P450RAI-2 transcripts; HPK1a-ras cells, RT-PCR, post-addition of inducer): ≤ 2 h | induction of P450RAI-2 transcripts, HPK1a-ras, HeLa and MCF-7 (P450RAI-2 transcripts; Northern blot, 1 μM, 12 hours): show induction | induction of P450RAI-2 expression, MCF-7 cells (P450RAI-2 transcripts; Northern blot, 12 hours): induced | induction of P450RAI-2 expression, HPK1A-RAS keratinocytes (P450RAI-2 transcripts; Northern blot, 10^-6 M, 12 hours): inducible | inducible expression of P450RAI-2, MCF-7, HeLa, HPK1a-ras and WT-E (P450RAI-2 transcripts; RT-PCR, 1 μM): evidence for inducible expression | P450RAI-2 transcripts in NB4, V79 and SK-Luci-6 cells (P450RAI-2 transcripts; RT-PCR, vehicle or all-trans-RA treated): little or no perceptible transcripts | conversion of substrate to aqueous radioactivity, pcDNA3.1 transfected cells ([1]; COS-1 cells with empty vector pcDNA3.1, 3 hours): 2.7±0.2% | conversion of substrate to aqueous radioactivity, media alone ([1]; media alone control, 3 hours): 1.6±0.1% | IC50 (P450RAI-1 [2]): ~2500 nM and 2500 nM | all-trans-RA substrate converted to aqueous-soluble products, P450RAI-2 transfected cells (P450RAI-2 [3]): 34±0.2% | all-trans-RA substrate converted to aqueous-soluble products, P450RAI-1 transfected cells (P450RAI-1 [4]): 26±1.5%

CC1=C(/C=C/C(C)=C\C=C\C(C)=C\C(=O)O)C(C)(C)CCC1 [9-cis-RA, 9-cis retinoic acid]
induction of P450RAI-2 expression, MCF-7 cells (P450RAI-2 transcripts; Northern blot, 12 hours): not clear | effectiveness as competitor of P450RAI-1 mediated all-trans-RA metabolism (P450RAI-1 [2]): less effective | effectiveness as competitor of P450RAI-2 mediated all-trans-RA metabolism (P450RAI-2 [5]): less effective

CC1=C(/C=C/C(C)=C/C=C/C(C)=C\C(=O)O)C(C)(C)CCC1 [13-cis-RA, 13-cis retinoic acid]
induction of P450RAI-2 expression, MCF-7 cells (P450RAI-2 transcripts; Northern blot, 12 hours): induced | effectiveness as competitor of P450RAI-1 mediated all-trans-RA metabolism (P450RAI-1 [2]): less effective | effectiveness as competitor of P450RAI-2 mediated all-trans-RA metabolism (P450RAI-2 [5]): less effective

CC1=C(/C=C/C(C)=C/C=C/C(C)=C/CO)C(C)(C)CCC1 [Retinol, retinol]
IC50 (P450RAI-1 [2]): > 100000 nM | effectiveness as competitor of P450RAI-1 mediated all-trans-RA metabolism (P450RAI-1 [2]): less effective | effectiveness as competitor of P450RAI-1 mediated all-trans-RA metabolism (P450RAI-1 [2]; listed as retinol): very poor competitors | effectiveness as competitor of P450RAI-2 mediated all-trans-RA metabolism (P450RAI-2 [5]): less effective | effectiveness as competitor of P450RAI-2 mediated all-trans-RA metabolism (P450RAI-2 [5]; listed as retinol): very poor competitors | IC50 (P450RAI-2 [5]; read-out: Interpolated ID50, P450RAI-2): > 100000 nM

CC1=C(/C=C/C(C)=C/C=C/C(C)=C/C=O)C(C)(C)CCC1 [retinal]
effectiveness as competitor of P450RAI-1 mediated all-trans-RA metabolism (P450RAI-1 [2]): less effective | effectiveness as competitor of P450RAI-1 mediated all-trans-RA metabolism (P450RAI-1 [2]; listed as retinaldehyde): very poor competitors | effectiveness as competitor of P450RAI-2 mediated all-trans-RA metabolism (P450RAI-2 [5]): less effective | effectiveness as competitor of P450RAI-2 mediated all-trans-RA metabolism (P450RAI-2 [5]; listed as retinaldehyde): very poor competitors

CCOC(=O)c1ccc(C#Cc2ccc3c(c2)C(C)(C)CCS3)nc1 [Tazarotene]
P450RAI-2 expression, Day14 Psoriasis Biopsy sample (P450RAI-2 expression; Northern blot): expressed | P450RAI-2 expression, RAFT sample (P450RAI-2 expression; Northern blot): induced | P450RAI-2 expression, RAFT sample (P450RAI-2 expression; RT-PCR): shows expression
